Data on 15 compounds can be found in patent US20240327417A1, “HETEROCYCLIC COMPOUNDS” (BeiGene Switzerland GmbH, priority 2021, published 2024).

The target in experiment [1] is T1, Full length DGKζ (in-house protein M1-V929) (Homo sapiens, UniProt Q13574).
T1 construct: His (N); TEV cleavage site (N); made in house; host or cells: Sf9 insect cells (baculovirus, Bac-to-Bac)
As to the kind of experiment: Biochemical DGK IC50 assay (ADP-Glo, lipid micelle substrate), DGKζ. As to conditions: 0.5 nM enzyme, 140 μM ATP, 80 μM DAG, 1 hour preincubation, 1 hour reaction, room temperature, read-out: IC50s for DGKζ. In outline: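 In-house full-length human DGKζ, baculovirus-expressed in Sf9 cells, was assayed with a DAG/PS lipid micelle substrate at room temperature. Buffer was 50 mM HEPES, 10 mM MgCl2, 0.01% BSA, 0.1 mM Na3VO4, 0.005% Tween-20, 0.01 mM CaCl2, with final compound 1.55˜10000 nM or 23.3˜150000 nM.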

The target of experiment [2] is T2, Full length DGKα (D21-10BG, SignalChem) (Homo sapiens, UniProt P23743).
T2 construct: Full length DGKα (D21-10BG, SignalChem); purchased SignalChem D21-10BG
T2 sequence (P23743 whole entry): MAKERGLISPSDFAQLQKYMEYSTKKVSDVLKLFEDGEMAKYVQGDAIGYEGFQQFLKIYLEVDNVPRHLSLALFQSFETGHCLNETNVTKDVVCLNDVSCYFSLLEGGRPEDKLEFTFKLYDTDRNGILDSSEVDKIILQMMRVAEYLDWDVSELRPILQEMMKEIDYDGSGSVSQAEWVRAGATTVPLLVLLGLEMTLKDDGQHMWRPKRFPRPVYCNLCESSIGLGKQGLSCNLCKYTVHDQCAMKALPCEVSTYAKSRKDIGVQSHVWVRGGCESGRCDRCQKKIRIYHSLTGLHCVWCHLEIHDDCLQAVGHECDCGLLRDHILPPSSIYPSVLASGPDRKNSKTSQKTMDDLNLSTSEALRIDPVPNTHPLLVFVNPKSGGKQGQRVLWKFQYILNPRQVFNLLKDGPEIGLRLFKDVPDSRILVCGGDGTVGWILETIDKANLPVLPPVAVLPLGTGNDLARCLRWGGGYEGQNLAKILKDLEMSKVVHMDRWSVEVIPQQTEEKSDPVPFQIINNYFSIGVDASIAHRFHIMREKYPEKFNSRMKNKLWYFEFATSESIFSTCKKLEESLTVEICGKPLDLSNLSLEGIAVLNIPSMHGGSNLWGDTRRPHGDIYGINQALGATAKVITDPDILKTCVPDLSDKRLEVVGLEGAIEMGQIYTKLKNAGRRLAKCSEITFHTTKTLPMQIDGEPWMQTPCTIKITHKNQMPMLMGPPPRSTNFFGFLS
As to the kind of experiment: Biochemical DGK IC50 assay (ADP-Glo, lipid micelle substrate), DGKα. To be noted: 7.5 nM enzyme, 140 μM ATP, 80 μM DAG, 1 hour preincubation, 1 hour reaction, room temperature, read-out: IC50s for DGKα. The gist of the method: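 Full-length enzyme was assayed by ADP-Glo on DAG/PS lipid micelles at room temperature in HEPES/MgCl2/CaCl2 buffer with BSA, Na3VO4 and Tween-20, using a 1 h reaction and luminescence read-out.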

T1 sequence (Q13574 1-929 isoform Q13574-4): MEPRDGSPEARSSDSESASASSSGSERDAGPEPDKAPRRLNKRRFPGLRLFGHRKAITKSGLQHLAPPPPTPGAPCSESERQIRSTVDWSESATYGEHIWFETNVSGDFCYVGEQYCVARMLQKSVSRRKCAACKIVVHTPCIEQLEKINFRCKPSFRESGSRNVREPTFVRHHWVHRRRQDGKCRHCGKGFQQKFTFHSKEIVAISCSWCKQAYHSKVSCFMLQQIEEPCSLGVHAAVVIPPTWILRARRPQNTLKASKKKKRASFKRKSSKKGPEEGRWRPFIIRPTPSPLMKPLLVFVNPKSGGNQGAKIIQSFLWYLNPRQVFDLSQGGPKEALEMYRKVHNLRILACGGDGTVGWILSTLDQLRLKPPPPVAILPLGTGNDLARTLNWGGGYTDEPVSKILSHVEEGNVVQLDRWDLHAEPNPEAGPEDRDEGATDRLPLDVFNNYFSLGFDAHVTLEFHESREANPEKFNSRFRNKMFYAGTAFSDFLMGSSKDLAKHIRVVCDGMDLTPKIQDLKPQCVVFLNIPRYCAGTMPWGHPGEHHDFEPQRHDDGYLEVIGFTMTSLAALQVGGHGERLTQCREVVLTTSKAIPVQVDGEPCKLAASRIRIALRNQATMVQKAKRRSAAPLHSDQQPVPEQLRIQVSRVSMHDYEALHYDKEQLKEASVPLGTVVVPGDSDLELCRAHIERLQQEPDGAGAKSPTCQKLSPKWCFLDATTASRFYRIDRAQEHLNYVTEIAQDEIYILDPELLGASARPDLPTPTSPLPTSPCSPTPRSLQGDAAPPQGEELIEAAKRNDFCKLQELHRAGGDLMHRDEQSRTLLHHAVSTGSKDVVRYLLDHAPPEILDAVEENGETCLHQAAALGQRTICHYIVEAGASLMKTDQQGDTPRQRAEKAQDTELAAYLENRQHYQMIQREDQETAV

For the compound `[2H]C([2H])([2H])C(c1ccc2nc(C)sc2c1)N1C[C@H](CC)N(c2cc(=O)n(C([2H])([2H])[2H])n3cc(CC#N)nc23)C[C@H]1CC` (single isomer, unassigned) [Compound A95b], the values for the IC50 in experiment [1] and in experiment [2] were 1020 nM and 1530 nM, respectively.
Turning to `[2H]C([2H])([2H])c1nc2ccc(C(C)N3C[C@H](CC)N(c4cc(=O)n(C)n5cc(CC#N)nc45)C[C@H]3CC)cc2s1` (single isomer, unassigned) [Compound A96a], the results for the IC50 in experiment [1] and in experiment [2] were 33 nM and 54 nM, respectively.
Regarding `[2H]C([2H])([2H])c1nc2ccc(C(C)N3C[C@H](CC)N(c4cc(=O)n(C)n5cc(CC#N)nc45)C[C@H]3CC)cc2s1` (single isomer, unassigned) [Compound A96b], the IC50 was 861 nM in experiment [1] and 2080 nM in experiment [2].
Consider `[2H]C([2H])([2H])c1nc2ccc(C(C)N3C[C@H](CC)N(c4cc(=O)n(C([2H])([2H])[2H])n5cc(CC#N)nc45)C[C@H]3CC)cc2s1` (single isomer, unassigned) [Compound A97a], for which the IC50 in experiment [1] is 24 nM; in experiment [2], 79 nM.
The matching figures for `[2H]C([2H])([2H])c1nc2ccc(C(C)N3C[C@H](CC)N(c4cc(=O)n(C([2H])([2H])[2H])n5cc(CC#N)nc45)C[C@H]3CC)cc2s1` (single isomer, unassigned) [Compound A97b]: 1150 nM and 1160 nM.
Take `CCC(c1ccc2nc(C)sc2n1)N1C[C@H](CC)N(c2cc(=O)n(C)n3cc(CC#N)nc23)C[C@H]1C` (single isomer, unassigned) [Compound A98a]: the IC50 came out at 2940 nM in experiment [1] and 712 nM in experiment [2].
`CCC(c1ccc2nc(C)sc2n1)N1C[C@H](CC)N(c2cc(=O)n(C)n3cc(CC#N)nc23)C[C@H]1C` (single isomer, unassigned) [Compound A98b]: the results for the IC50 in experiment [1] and in experiment [2] were 45 nM and 39 nM, respectively.
In the case of `CCC(c1ccc2nc(C)sc2n1)N1C[C@H](CC)N(c2cc(=O)n(C)n3cc(CC#N)nc23)C[C@H]1CC` (single isomer, unassigned) [Compound A99a], the IC50 in experiment [1] stood at 132 nM; in experiment [2], 196 nM.
Take `CCC(c1ccc2nc(C)sc2n1)N1C[C@H](CC)N(c2cc(=O)n(C)n3cc(CC#N)nc23)C[C@H]1CC` (single isomer, unassigned) [Compound A99b]: the IC50 was determined as 11 nM in experiment [1] and 21 nM in experiment [2].
Turning to `CCc1nc2ccc(C(C)N3C[C@H](CC)N(c4cc(=O)n(C)n5cc(CC#N)nc45)C[C@H]3CC)cc2s1` (single isomer, unassigned) [Compound A100a], the results for the IC50 in experiment [1] and in experiment [2] were 19 nM and 297 nM, respectively.
As to `CCc1nc2ccc(C(C)N3C[C@H](CC)N(c4cc(=O)n(C)n5cc(CC#N)nc45)C[C@H]3CC)cc2s1` (single isomer, unassigned) [Compound A100b], the IC50 in experiment [1] was 911 nM; in experiment [2] it was 1060 nM.
Regarding `CCc1nc2ccc(C(C)N3C[C@H](C)N(c4cc(=O)n(C)n5cc(CC#N)nc45)C[C@H]3CC)cc2s1` (single isomer, unassigned) [Compound A101a], the IC50 in experiment [1] was found to be 29 nM; in experiment [2], 851 nM.
`CCc1nc2ccc(C(C)N3C[C@H](C)N(c4cc(=O)n(C)n5cc(CC#N)nc45)C[C@H]3CC)cc2s1` (single isomer, unassigned) [Compound A101b]: the IC50 in experiment [1] came out at 1110 nM; in experiment [2], 2360 nM.
As for `CC[C@H]1CN(C(CCOC)c2ccc3nc(C)sc3c2)[C@H](CC)CN1c1cc(=O)n(C)n2cc(CC#N)nc12` (single isomer, unassigned) [Compound A102a], the IC50 in experiment [1] came out at 46 nM; in experiment [2], 378 nM.
For the compound `CC[C@H]1CN(C(CCOC)c2ccc3nc(C)sc3c2)[C@H](CC)CN1c1cc(=O)n(C)n2cc(CC#N)nc12` (single isomer, unassigned) [Compound A102b], the results for the IC50 in experiment [1] and in experiment [2] were 623 nM and 735 nM, respectively.
